Where two headings read alike, the source gives them in different places.
System: compound-treated mice
Assay: Neuropharmacological assay (SmartCube): behavioral activity signature and minimal effective dose
Format: in vivo
Details: for minimal effective dose: Mus musculus, ip; for AD: ADHD (probability of activity signature) / AG: analgesic (probability of activity signature) / AX: anxiolytic (probability of activity signature) / CE: cognitive enhancer (probability of activity signature) / DP: anti-depressant (probability of activity signature) / MS: mood stabilizer (probability of activity signature) / PS: anti-psychotic (probability of activity signature) / SD: sedative hypnotic (probability of activity signature) / UN: uncharacterized CNS activity (probability of activity signature): i.p. 15 min before test, most efficacious dose(s)
How it was run: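 Video-recorded behavior is compared algorithmically against a reference-compound database, yielding class probabilities (best dose reported). Compounds given i.p. in NMP/PEG/propylene glycol 15 min pre-test at 3 doses; potency as MED, the dose (mpk, range usually 0.3–30) reaching ≥50% total activity.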

[1] = MED = dose having 50% or more total activity, read-out: Potency: minimal effective dose (MED)
[2] = MED = dose having 50% or more total activity, read-out: Potency: minimal effective dose (MED), binned

| Compound | minimal effective dose [1] | AD: ADHD (probability of activity signature) | AG: analgesic (probability of activity signature) | AX: anxiolytic (probability of activity signature) | CE: cognitive enhancer (probability of activity signature) | DP: anti-depressant (probability of activity signature) | MS: mood stabilizer (probability of activity signature) | PS: anti-psychotic (probability of activity signature) | SD: sedative hypnotic (probability of activity signature) | UN: uncharacterized CNS activity (probability of activity signature) | minimal effective dose [2] | Potency: minimal effective dose (MED), binned (MED = dose having 50% or more total activity, hydrochloride) | MS: mood stabilizer (probability of activity signature) (hydrochloride) | SD: sedative hypnotic (probability of activity signature) (hydrochloride) |
| --- | --- | --- | --- | --- | --- | --- | --- | --- | --- | --- | --- | --- | --- | --- |
| Cc1cccc2c1[C@H](N)[C@H](C)OC2.Cl [Example 82] | < 3 mg/kg | + (LOQ ≤ + <5%) | ++ (5% ≤ ++ <25%) | +++ (25% ≤ +++ <50%) | ++ (5% ≤ ++ <25%) | ++ (5% ≤ ++ <25%) | + (LOQ ≤ + <5%) | ++ (5% ≤ ++ <25%) | ++ (5% ≤ ++ <25%) | +++ (25% ≤ +++ <50%) |  |  |  |  |
| C[C@H]1OC[C@@H](N)c2cc(F)ccc21.Cl [Example 205] |  | + (LOQ ≤ + <5%) | + (LOQ ≤ + <5%) | +++ (25% ≤ +++ <50%) | ++ (5% ≤ ++ <25%) | ++ (5% ≤ ++ <25%) | + (LOQ ≤ + <5%) | ++ (5% ≤ ++ <25%) | ++ (5% ≤ ++ <25%) | +++ (25% ≤ +++ <50%) | 3 to 10 mg/kg |  |  |  |
| Cc1cccc2c1[C@H](N)[C@@H](C)OC2 (single isomer, unassigned) [Example 167] |  | + (LOQ ≤ + <5%) | ++ (5% ≤ ++ <25%) | ++ (5% ≤ ++ <25%) | + (LOQ ≤ + <5%) | + (LOQ ≤ + <5%) | + (LOQ ≤ + <5%) | ++ (5% ≤ ++ <25%) | + (LOQ ≤ + <5%) | ++++ (50% ≤ ++++) | < 3 mg/kg |  |  |  |
| COc1ccc2c(c1)[C@H](N)[C@H](C)OC2 (single isomer, unassigned) [Example 173] |  | + (LOQ ≤ + <5%) | ++ (5% ≤ ++ <25%) | ++ (5% ≤ ++ <25%) | ++ (5% ≤ ++ <25%) | + (LOQ ≤ + <5%) | + (LOQ ≤ + <5%) | + (LOQ ≤ + <5%) | + (LOQ ≤ + <5%) | ++++ (50% ≤ ++++) | 3 to 10 mg/kg |  |  |  |
| C[C@@H]1OC[C@@H](N)c2ccccc21.Cl (relative stereo) [Example 105, trans-1-Methylisochroman-4-amine hydrochloride] | 10 to 30 mg/kg | + (LOQ ≤ + <5%) | ++ (5% ≤ ++ <25%) | ++ (5% ≤ ++ <25%) | ++ (5% ≤ ++ <25%) | ++ (5% ≤ ++ <25%) | ++ (5% ≤ ++ <25%) | ++ (5% ≤ ++ <25%) | + (LOQ ≤ + <5%) | +++ (25% ≤ +++ <50%) |  |  |  |  |
| CCCN[C@@H]1c2ccccc2CO[C@H]1C.Cl [Example 264] |  | ++ (5% ≤ ++ <25%) | + (LOQ ≤ + <5%) | ++ (5% ≤ ++ <25%) | + (LOQ ≤ + <5%) | ++ (5% ≤ ++ <25%) | ++ (5% ≤ ++ <25%) | +++ (25% ≤ +++ <50%) | ++ (5% ≤ ++ <25%) | + (LOQ ≤ + <5%) | 3 to 10 mg/kg |  |  |  |
| Cl.NC1COCc2ccc(C(F)(F)F)cc21 (stereo not drawn) [Example 9, 6-Trifluoromethylisochroman-4-amine hydrochloride] | 3 to 10 mg/kg | + (LOQ ≤ + <5%) | ++ (5% ≤ ++ <25%) | ++ (5% ≤ ++ <25%) | ++ (5% ≤ ++ <25%) | ++ (5% ≤ ++ <25%) | + (LOQ ≤ + <5%) | ++ (5% ≤ ++ <25%) | + (LOQ ≤ + <5%) | +++ (25% ≤ +++ <50%) |  |  |  |  |
| Cl.NC1COCCc2ccccc21 (stereo not drawn) [Example 30] | > 30 mg/kg | + (LOQ ≤ + <5%) | ++ (5% ≤ ++ <25%) | + (LOQ ≤ + <5%) | + (LOQ ≤ + <5%) | + (LOQ ≤ + <5%) | + (LOQ ≤ + <5%) | + (LOQ ≤ + <5%) | + (LOQ ≤ + <5%) | + (LOQ ≤ + <5%) |  |  |  |  |
| Cc1ccc2c(c1)CO[C@@H](C)[C@@H]2N [Example 253] |  | + (LOQ ≤ + <5%) | + (LOQ ≤ + <5%) | + (LOQ ≤ + <5%) | + (LOQ ≤ + <5%) | ++ (5% ≤ ++ <25%) | ++ (5% ≤ ++ <25%) | ++ (5% ≤ ++ <25%) | ++ (5% ≤ ++ <25%) | ++ (5% ≤ ++ <25%) | 3 to 10 mg/kg |  |  |  |
| CC(C)[C@@H]1OCc2ccccc2[C@H]1N.Cl (relative stereo) [Example 274, trans-3-Isopropylisochroman-4-amine hydrochloride] |  | + (LOQ ≤ + <5%) | + (LOQ ≤ + <5%) | + (LOQ ≤ + <5%) | + (LOQ ≤ + <5%) | ++ (5% ≤ ++ <25%) |  | ++ (5% ≤ ++ <25%) |  | ++ (5% ≤ ++ <25%) |  | A (≤3 mpk) | +++ (25% ≤ +++ <50%) | ++ (5% ≤ ++ <25%) |
| CC[C@H]1OCc2ccc(C)cc2[C@@H]1N (single isomer, unassigned) [Example 177] |  | + (LOQ ≤ + <5%) | ++ (5% ≤ ++ <25%) | ++++ (50% ≤ ++++) | ++ (5% ≤ ++ <25%) | + (LOQ ≤ + <5%) | + (LOQ ≤ + <5%) | ++ (5% ≤ ++ <25%) | + (LOQ ≤ + <5%) | ++++ (50% ≤ ++++) | < 3 mg/kg |  |  |  |
| C[C@H]1OCc2ccc(F)cc2[C@@H]1N [Example 183] |  | + (LOQ ≤ + <5%) | ++ (5% ≤ ++ <25%) | ++ (5% ≤ ++ <25%) | ++ (5% ≤ ++ <25%) | ++ (5% ≤ ++ <25%) | + (LOQ ≤ + <5%) | ++ (5% ≤ ++ <25%) | ++ (5% ≤ ++ <25%) | ++++ (50% ≤ ++++) | < 3 mg/kg |  |  |  |
